How the values were obtained:
[1] = reversed-phase LC retention time (C18, 15 min MeOH gradient); higher = more hydrophobic / later elution
[2] = collision cross section (TIMS, N2 drift gas) of the primary ion; higher = larger gas-phase ion size
[3] = ionization mode: ESI+, ion species: [M+H]+
[4] = ionization mode: ESI-, ion species: [M-H]-
[5] = ionization mode: ESI+, ion species: [M]+

| Structure (SMILES) | reversed-phase LC retention time [1, 3] [min] | reversed-phase LC retention time [1, 4] [min] | collision cross section [2, 3] [Å²] | collision cross section [2, 4] [Å²] | reversed-phase LC retention time [1, 5] [min] | collision cross section [2, 5] [Å²] |
| --- | --- | --- | --- | --- | --- | --- |
| COc1cc(OC)nc(NC(=O)NS(=O)(=O)N(C)S(C)(=O)=O)n1 [Amidosulfuron] | 12.1 | 8.09 | 175.88 | 179.05 | – | – |
| CN(C)c1nc(=O)n(C2CCCCC2)c(=O)n1C | 11.7 | – | 163.21 | – | – | – |
| CCCCC(CC)COC(=O)CC(C(=O)OCC(CC)CCCC)S(=O)(=O)O (configuration not stated) [Dioctylsulfosuccinate] | 17.1 | 17.1 | 222.09 | 208.23 | – | – |
| CCN(CCCCOC(=O)c1ccc(OC)c(OC)c1)C(C)Cc1ccc(OC)cc1 (configuration not stated) [Mebeverine] | 11.9 | – | 202.99 | – | – | – |
| CC1(C)O[C@@H]2C[C@H]3[C@@H]4CCC5=CC(=O)C=C[C@]5(C)[C@H]4[C@@H](O)C[C@]3(C)[C@]2(C(=O)CO)O1 [Desonide] | 13.6 | – | 200.7 | – | – | – |
| CC1(C)CC(N)CC(C)(CN)C1 (configuration not stated) [Isophorone diamine] | 1.84 | – | 141.08 | – | – | – |
| CCCCCCCCCCN(C)C [N,N-Dimethyldecylamine] | 13.7 | – | 158.65 | – | – | – |
| Cc1cccc(C)c1N(Cn1cccn1)C(=O)C(=O)O [Metazachlor OA] | – | 8.92 | – | 162.14 | – | – |
| COc1cc2ccc(=O)oc2c(O)c1OC [Fraxidin] | 9.58 | 8.57 | 143.3 | 145.19 | – | – |
| C[C@]12CCC3=C4CCC(=O)C=C4CC[C@H]3[C@@H]1CC[C@@]2(O)CC#N [Dienogest] | 12.6 | – | 175.13 | – | – | – |
| CC1=NNC(=O)N(/N=C/c2cccnc2)C1 [Pymetrozine] | 5.8 | – | 153.68 | – | – | – |
| Cc1nn(C)c(Oc2ccccc2)c1/C=N/OCc1ccc(C(=O)OC(C)(C)C)cc1 [Fenpyroximate] | 17.5 | – | 203.95 | – | – | – |
| O=S(=O)(c1ccc(O)cc1)c1ccc(O)cc1 [Bisphenol S] | 9.38 | 7.15 | 155.2 | 154.29 | – | – |
| C/C=C1\N(C)C(C)CC1(c1ccccc1)c1ccccc1 (configuration not stated) [EDDP] | 11.5 | – | 166.21 | – | – | – |
| CC(C)C1CCC(Cc2ccc(Cl)cc2)C1(O)Cn1cncn1 (configuration not stated) [Ipconazole] | 16.4 | – | 174.42 | – | – | – |
| Cn1ncc(N)c(Cl)c1=O [Methyldesphenylchloridazon] | 5.06 | – | 123.51 | – | – | – |
| O=S(=O)(O)c1cccc2ccc(O)cc12 [2-Naphthol-8-sulfonic acid] | – | 7.16 | – | 144.25 | – | – |
| CC(C)c1c(C(=O)Nc2ccccc2)c(-c2ccccc2)c(-c2ccc(F)cc2)n1CCC(O)CC(O)CC(=O)O (configuration not stated) [Atorvastatin] | 15.1 | 14.6 | 232.51 | 228.86 | – | – |
| N#Cc1ccc(C/C(=N\NC(=O)Nc2ccc(OC(F)(F)F)cc2)c2cccc(C(F)(F)F)c2)cc1 [Metaflumizone] | 16.8 | 17.3 | 213.54 | 221.65 | – | – |
| Cc1ncc([N+](=O)[O-])n1CCO [Metronidazole] | 5.53 | – | 132.43 | – | – | – |

| Structure (SMILES) | reversed-phase LC retention time [1, 3] [min] | reversed-phase LC retention time [1, 4] [min] | collision cross section [2, 3] [Å²] | collision cross section [2, 4] [Å²] | reversed-phase LC retention time [1, 5] [min] | collision cross section [2, 5] [Å²] |
| --- | --- | --- | --- | --- | --- | --- |
| COCCOCCOCCOCCOC [Tetraglyme] | 8.94 | – | 152.39 | – | – | – |
| C#C[C@]1(OC(C)=O)CC[C@H]2[C@@H]3CCC4=C/C(=N/O)CC[C@@H]4[C@H]3CC[C@@]21CC [Norgestimate] | 16.3 | – | 200.98 | – | – | – |
| CC[C@H](C)[C@H]1O[C@]2(CC[C@@H]1C)C[C@@H]1C[C@@H](C/C=C(\C)[C@@H](O[C@H]3C[C@H](OC)[C@@H](O[C@H]4C[C@H](OC)[C@@H](O)[C@H](C)O4)[C@H](C)O3)[C@@H](C)/C=C/C=C3\CO[C@@H]4[C@H](O)C(C)=C[C@@H](C(=O)O1)[C@]34O)O2 [Ivermectin B1a] | – | 19.5 | – | 292.22 | – | – |
| CCCCCCCCCCCCCCCCCC[N+](C)(C)CCCCCCCCCCCCCCCCCC [Dimethyldioctadecylammonium] | – | – | – | – | 21.1 | 272.56 |
| CCC1(c2ccccc2)C(=O)NCNC1=O [Primidone] | 9.29 | – | 148.13 | – | – | – |
| O=C(O)C(F)(F)C(F)(F)C(F)(F)C(F)(F)C(F)(F)C(F)(F)C(F)(F)C(F)(F)C(F)(F)C(F)(F)F [Perfluoroundecanoic acid] | – | 16.5 | – | 182.71 | – | – |
| CCCCCCCCCC[N+](C)(C)Cc1ccccc1 [Benzyldimethyldecylammonium] | – | – | – | – | 14.7 | 183.77 |
| CCCCCCCCn1sc(Cl)c(Cl)c1=O [DCOIT] | 16.9 | – | 166.39 | – | – | – |
| COc1ccc2[nH]cc(CCNC(C)=O)c2c1 [Melatonin] | 9.66 | 9.81 | 153.65 | 154.96 | – | – |
| CCCCN(C=O)CCCC [N,N-Di-n-butylformamide] | 13.5 | – | 141.17 | – | – | – |
| O=C(NCc1ncc(C(F)(F)F)cc1Cl)c1c(Cl)cccc1Cl [Fluopicolide] | 14.4 | – | 176.08 | – | – | – |
| CC(=O)Nc1ccc(O)cc1 [Acetaminophen] | 5.38 | – | 130.01 | – | – | – |
| C[C@H](CCC(=O)O)[C@H]1CC[C@H]2[C@@H]3[C@H](O)C[C@@H]4C[C@H](O)CC[C@]4(C)[C@H]3C[C@H](O)[C@]12C [Cholic acid] | – | 14.7 | – | 203.99 | – | – |
| CC(C)(C)CC(C)(C)c1ccc(O)cc1 [4-tert-Octylphenol] | – | 17.3 | – | 156.39 | – | – |
| CN(C)CC(c1ccc(O)cc1)C1(O)CCCCC1 (configuration not stated) [Venlafaxine-O-desmethyl] | 8.96 | 11.3 | 166.78 | 172.85 | – | – |
| CCN(CCC#N)c1ccc(N=Nc2c(Br)cc([N+](=O)[O-])cc2Br)cc1 [Disperse Orange 61] | 16.8 | – | 202.21 | – | – | – |
| CC(C)(C)Nc1nc(N)nc(Cl)n1 [Desethylterbutylazine] | 12 | – | 144.23 | – | – | – |
| CCCCC(CC)CNCC(CC)CCCC (configuration not stated) [Di(2-ethylhexyl)amine] | 14.8 | – | 171.64 | – | – | – |
| CC(C)COC(=O)c1ccccc1C(=O)O [Mono-iso-butyl-phthalate] | – | 10.2 | – | 151.15 | – | – |
| CCC(C)OC(=O)N1CCCCC1CCO (configuration not stated) [Icaridin] | 13.6 | – | 152.87 | – | – | – |

| Structure (SMILES) | reversed-phase LC retention time [1, 3] [min] | reversed-phase LC retention time [1, 4] [min] | collision cross section [2, 3] [Å²] | collision cross section [2, 4] [Å²] | reversed-phase LC retention time [1, 5] [min] | collision cross section [2, 5] [Å²] |
| --- | --- | --- | --- | --- | --- | --- |
| COc1cc(O)c(C(=O)c2ccccc2)cc1S(=O)(=O)O [Benzophenone-4] | – | 9.83 | – | 168.24 | – | – |
| N#Cc1c(Cl)c(Cl)c(S(=O)(=O)O)c(C(N)=O)c1Cl [2-Amido-3,5,6-trichloro-4-cyanobenzenesulfonic acid] | – | 7.02 | – | 154.35 | – | – |
| O=C1Nc2ccc(Cl)cc2C(c2ccccc2Cl)=NC1O (configuration not stated) [Lorazepam] | 13.2 | 13.5 | 168.84 | 167.96 | – | – |
| CCCCC(CC)COC(=O)c1ccc(N(C)C)cc1 (configuration not stated) | 17.9 | – | 185.61 | – | – | – |
| O=C(Nc1ccc(F)cc1F)c1cccnc1Oc1cccc(C(F)(F)F)c1 [Diflufenican] | 16.2 | 16.7 | 189.49 | 181.03 | – | – |
| Cc1cccc(Nc2ccccc2C(=O)O)c1C [Mefenamic acid] | 16.3 | 13.6 | 154.45 | 159.71 | – | – |
| CCCCCCCCCCCC(=O)N(CCO)CCO [Lauryl diethanolamide] | 16.4 | – | 185.96 | – | – | – |
| CCCc1cc(=O)[nH]c(=S)[nH]1 [6-Propyl-2-thiouracil] | – | 6.69 | – | 133.88 | – | – |
| O=S(=O)(O)NC1CCCCC1 [Cyclamate] | – | 6.16 | – | 138.05 | – | – |
| CCC(=O)OCC(=O)[C@@]1(OC(=O)CC)[C@@H](C)C[C@H]2[C@@H]3CCC4=CC(=O)C=C[C@]4(C)[C@@]3(Cl)[C@@H](O)C[C@@]21C [Beclometasone dipropionate] | – | 16.5 | – | 223.83 | – | – |
| CCCC[N+](CCCC)(CCCC)CCCC [Tetrabutylammonium] | – | – | – | – | 11 | 167.79 |
| CCC(C)n1c(=O)[nH]c(C)c(Br)c1=O (configuration not stated) [Bromacil] | 11.4 | – | 144.76 | – | – | – |
| Oc1ccc(Cc2ccc(O)cc2)cc1 [Bisphenol F] | – | 11.9 | – | 152.1 | – | – |
| CC(=O)[C@H]1CC[C@H]2[C@@H]3C=CC4=CC(=O)CC[C@@]4(C)[C@@H]3CC[C@]12C [Dydrogesterone] | 15.1 | – | 177.44 | – | – | – |
| CC(=O)O[C@]1(C(C)=O)CC[C@H]2[C@@H]3C[C@H](C)C4=CC(=O)CC[C@]4(C)[C@H]3CC[C@@]21C [Medroxyprogesteroneacetate] | 15.4 | – | 199.59 | – | – | – |
| CC12CCC(=O)C=C1CCC1C2CCC2(C)C(C(=O)CO)CCC12 (configuration not stated) [21-Hydroxyprogesterone] | 14.5 | – | 183.52 | – | – | – |
| CC(C)C(=O)OCC(C)(C)C(OC(=O)C(C)C)C(C)C (configuration not stated) [2,2,4-Trimethyl-1,3-pentanediol diisobutyrate] | 17 | – | 172.79 | – | – | – |
| COc1ccc([C@@H]2Sc3ccccc3N(CCN(C)C)C(=O)[C@@H]2OC(C)=O)cc1 [Diltiazem] | 12.1 | – | 198.45 | – | – | – |
| O=C(O)C(F)(F)C(F)(F)C(F)(F)C(F)(F)F [Perfluoropentanoic acid] | – | 10.9 | – | 129.75 | – | – |
| O=P(OCC(Br)CBr)(OCC(Br)CBr)OCC(Br)CBr (configuration not stated) [Tris(2,3-dibromopropyl)phosphate] | 16 | – | 195.61 | – | – | – |

Source: the supplement of paper PMC12613149
